The source of these data is patent publication US20140186261A1, “ANTI-TUMOR AGENT AND ANTI-TUMOR KIT” (NIHON MEDI-PHYSICS CO., LTD., priority 2012, published 2014).

Data set [1] is classed as in vivo, BALB/c nude mice.
Experimental: 5-FU was repeatedly intraperitoneally administered to BALB/c nude mice (male, 7-week old, about 25 g in body weight, obtained from Japan SLC, Inc.) at 25 mg/kg, 50 mg/kg, or 100 mg/kg once a day for 4 days. Body weight was measured at the 5th day from the first starting day of administration and later to determine the rate of body weight reduction. The rate of body weight reduction was calculated based on the following equation.
Body weight reduction rate(%)=[{(Body weight at day prior to the date of first 5-FU administration)−(Body weight measured after start of 5-FU administration)}/(Body weight at day prior to the date of first 5-FU administration)]×100
Saline was administered to a control group in place of 5-FU.
The subject of data set [2] is HT29 cells. The experiment in a line: Anti-tumor effect of repeated administration of 64Cu-ATSM and 5-FU in HT29 tumor-bearing mouse (tumor volume). The data set is classed as in vivo, BALB/c nude mice. Particulars: HT29 tumor-bearing mice; two cycles (start day 1 and 25th day) of 5-FU 25 mg/kg i.p. x4 days and 64Cu-ATSM 37 MBq at final day; to day 34; 6 mice. The procedure: The HT29 tumor-bearing model was prepared in the same way as Example 2; 1 week after the implantation of HT29 cells, 5-FU was repeatedly intraperitoneally administered at 25 mg/kg once a day for 4 days; and at the final day (4th day) of 5-FU administration, 37 MBq (1 mCi) of ^64Cu-ATSM was administered through the tail vein. The administration of 5-FU was again started at the 25th day from the start of 5-FU administration, with 25 mg/kg thereof repeatedly administered once a day for 4 days. At the final day of 5-FU administration, 37 MBq (1 mCi) of ^64Cu-ATSM was then administered through the tail vein. […] The tumor size in mice was measured 2, 4, 8, 12, 14, 16, 20, 24, 27, 31, or 34 days after starting the administration of 5-FU.
The experiment was carried out in the same way as Example 7 except for administering saline in place of ^64Cu-ATSM.
The experiment was carried out in the same way as Example 7 except for administering saline in place of 5-FU.
The volume of tumor was calculated from the size of tumor measured in Example 7 and Comparative Examples 6 and 7; the change thereof with time is shown in FIG. 5. In FIG. 5, the tumor volume at the day prior to the day of the first start of 5-FU administration was set to 100%, and the percentage based thereon was given. In FIG. 5, data are expressed in average and standard deviation for 6 mice.

In data set [3] the test system is Human large bowel cancer-derived HT29 cells. The experiment in a line: Detection of apoptotic cells in removed HT29 tumor by flow cytometry (Annexin V). The data set is classed as in vivo, BALB/c nude mice. Particulars: tumor removed 2 days after 64Cu-ATSM administration, 5-FU 25 mg/kg x4 days, 64Cu-ATSM 37 or 74 MBq, 6 mice. The procedure:
(§1) Human large bowel cancer-derived HT29 cells were purchased from ATCC and proliferated for use. […] At the final day of 5-FU administration, 37 MBq (1 mCi) of ^64Cu-ATSM was administered through the tail vein.
(§2) Cu-ATSM. The tumor size in mice was measured 2, 4, 8, 12, or 15 days after starting the administration of 5-FU. Cells obtained from the tumor removed at 2 days after the administration of ^64Cu-ATSM were subjected to the detection of apoptotic cells and CD133-positive (CD133+) cells using flow cytometry (Guava flow cytometry, from Millipore Corporation). The detection of apoptotic cells was performed using Annexin V (Mouse Anti-Human Annexin V FITC, AbD MCA2712F, from Serotec Co., Ltd.). The detection of CD133+cells was performed using an anti-CD133 antibody (CD133/1(A133)-PE, from Miltenyi Biotec K.K.).
In FIG. 2, the results of percentages of apoptotic cells in the removed tumor are expressed in average and standard deviation for 6 mice.
(In flow cytometry, cells or beads pass a laser one at a time.)

For data set [4], the system named is CD133+ cells in HT29 tumor. The data set is classed as in vivo, BALB/c nude mice. The following applies: tumor removed 2 days after 64Cu-ATSM administration; 5-FU 25 mg/kg x4 days, 64Cu-ATSM 37 or 74 MBq; anti-CD133 flow cytometry; 6 mice. On the procedure: as §1, §2
In FIG. 3, the results of percentages of CD133+cells in the removed tumor are expressed in average and standard deviation for 6 mice.

Data set [5] concerns Human large bowel cancer-derived HT29 cells. The experiment in a line: Anti-tumor effect of 64Cu-ATSM and 5-FU in HT29 tumor-bearing mouse (tumor volume). Particulars: HT29 tumor-bearing mice; 5-FU 25 mg/kg i.p. once a day x4 days; 64Cu-ATSM 37 MBq (74 MBq in Comparative Example 3) via tail vein at final day; measured to day 15; 6 mice. The data set is classed as in vivo, BALB/c nude mice. The procedure:
as §1, §2
The experiment was carried out in the same way as Example 2 except for administering saline in place of ^64Cu-ATSM.
The experiment was carried out in the same way as Example 2 except for administering saline in place of 5-FU.
Saline was administered in place of 5-FU. The dose of ^64Cu-ATSM was 74 MBq (2 mCi). The experiment was carried out in the otherwise same way as Example 2.
The volume of tumor was calculated from the size of tumor measured in Example 2 and Comparative Examples 1 to 3; the change thereof with time is shown in FIG. 1. […]

For data set [6], the system named is HT29 cells. The experiment in a line: Anti-tumor effect of 64Cu-ATSM and 6TG or PT in HT29 tumor-bearing mouse (tumor volume). The data set is classed as in vivo, BALB/c nude mice. Particulars: HT29 tumor-bearing mice; 6TG 12.5 mg/kg or PT 200 mg/kg i.p. once a day x4 days; 64Cu-ATSM 37 MBq via tail vein at final day (74 MBq alone in Comparative Example 3); to day 15; 6 mice. On the procedure:
The HT29 tumor-bearing model was prepared in the same way as Example 2, and 1 week after the implantation of HT29 cells, 6TG was repeatedly intraperitoneally administered at 12.5 mg/kg once a day for 4 days. At the final day of 6TG administration, 37 MBq (1 mCi) of ^64Cu-ATSM was administered through the tail vein. […] The tumor size in mice was measured 2, 4, 8, 12, or 15 days after starting the administration of 6TG.
The experiment was carried out in the same way as Example 5 except for administering saline in place of ^64Cu-ATSM.
The HT29 tumor-bearing model was prepared in the same way as Example 2, and 1 week after the implantation of HT29 cells, PT was repeatedly intraperitoneally administered at 200 mg/kg once a day for 4 days. At the final day of PT administration, 37 MBq (1 mCi) of ^64Cu-ATSM was administered through the tail vein. […] The tumor size in mice was measured 2, 4, 8, 12, or 15 days after starting the administration of PT.
The experiment was carried out in the same way as Example 6 except for administering saline in place of ^64Cu-ATSM.
The volume of tumor was calculated from the size of tumor measured in Examples 5 and 6 and Comparative Examples 4 and 5; the change thereof with time is shown in FIG. 4. In FIG. 4, the tumor volume at the day prior to the day of the start of 6TG or PT administration was set to 100%, and the percentage based thereon was given. In FIG. 4, data are expressed in average and standard deviation for 6 mice. In addition, the results of Example 2 and Comparative Examples 1 to 3 were shown together in FIG. 4.

Data set [7] in a line: Study of dose of PT using nude mouse (rate of body weight reduction). Type of data set: in vivo, BALB/c nude mice. Particulars: for Rate of Body Weight Reduction (%): average ± SD, 4 mice.
Experimental: PT was repeatedly intraperitoneally administered to BALE/c nude mice (male, 7-week old, about 25 g in body weight, obtained from Japan SLC, Inc.) at 25, 50, 100, or 200 mg/kg once a day for 4 days. Body weight was measured at the 5th day from the first starting day of administration and later to determine the rate of body weight reduction. The rate of body weight reduction was calculated based on the following equation.
Body weight reduction rate(%)=[{(Body weight at day prior to the date of first PT administration)−(Body weight measured after start of PT administration)}/(Body weight at day prior to the date of first PT administration)]×100
Saline was administered to a control group in place of PT. In Table 3, they were expressed in average and standard deviation for 4 mice.
For data set [8], the system named is tumor. The following applies: compared with 18FDG; Japanese Patent Laid-Open No. 2010-13380; cited from earlier work.
The test system of data set [9] is CD133-positive cells in tumor. The following applies: Yoshii et al. (2011), Nucl. Med. Biol. 38, 151-157; cited from earlier work.
In data set [10] the test system is CD133-positive cells. Particulars: Yoshii et al. (2010), Nucl. Med. Biol. 37, 395-404; cited from earlier work.
Data set [11] can be described thus: Study of dose of 6TG using nude mouse (rate of body weight reduction, death).
Experimental: 6TG was repeatedly intraperitoneally administered to BALB/c nude mice (male, 7-week old, about 25 g in body weight, obtained from Japan SLC, Inc.) at 12.5 mg/kg, 25 mg/kg, or 50 mg/kg once a day for 4 days. Body weight was measured at the 5th day from the first starting day of administration and later to determine the rate of body weight reduction. The rate of body weight reduction was calculated based on the following equation.
Body weight reduction rate(%)=[{(Body weight at day prior to the date of first 6TG administration)−(Body weight measured after start of 6TG administration)}/(Body weight at day prior to the date of first 6TG administration)]×100
Saline was administered to a control group in place of 6TG. In Table 2, they were expressed in average and standard deviation for 4 mice.

Like-named read-outs stand apart in the source and are kept apart here.

`O=c1[nH]cc(F)c(=O)[nH]1` [5-FU, 5-Fluorouracil]: the death of mice result is “died at the 10th or 11th day from administration” in data set [1] (5-FU 50 mg/kg i.p. once a day for 4 days) and “died at the 7th or 8th day from administration” in [1] (5-FU 100 mg/kg i.p. once a day for 4 days). For the same molecule, the “tumor volume, change with time (FIG. 5; % of volume at day prior to first start of 5-FU administration)” value in data set [2] is “could hardly suppress the proliferation of tumor”. The “percentage of apoptotic cells in tumor (FIG. 2)” value in data set [3] is reported as “apoptosis of tumor cells was confirmed”. In addition, the “percentage of CD133+ cells in tumor (FIG. 3)” value in data set [4] is “can kill CD133+cells”. Besides, the “tumor volume, change with time (FIG. 1; % of volume at day prior to start of 5-FU administration)” value in [5] is “did not suppress the proliferation of tumor”.
`Nc1nc2[nH]cc(CCc3ccc(C(=O)N[C@@H](CCC(=O)O)C(=O)O)cc3)c2c(=O)[nH]1` [PT, Pemetrexed]: the “tumor volume, change with time (FIG. 4; % of volume at day prior to start of 6TG or PT administration)” value in data set [6] is recorded as “could not suppress the proliferation of tumor”. Also, the “Rate of Body Weight Reduction (%)” value is listed as −8.42 ± 12.36% in [7] (PT 25 mg/kg/day i.p. once a day for 4 days, 5th Day); −12.11 ± 13.3% in data set [7] (PT 25 mg/kg/day i.p. x4 days, 9th Day); −10.94 ± 12.04% in data set [7] (PT 25 mg/kg/day i.p. x4 days, 12th Day); −14.11 ± 11.25% in data set [7] (PT 25 mg/kg/day i.p. x4 days, 16th Day); −15.38 ± 9.65% in data set [7] (PT 25 mg/kg/day i.p. x4 days, 18th Day); −3.94 ± 7.7% in data set [7] (PT 50 mg/kg/day i.p. x4 days, 5th Day). In addition, the “Rate of Body Weight Reduction (%)” value in data set [7] (PT 50 mg/kg/day i.p. x4 days, 9th Day) was −12.12 ± 5.33%; in data set [7] (PT 50 mg/kg/day i.p. x4 days, 12th Day), −12.91 ± 7.21%; in [7] (PT 50 mg/kg/day i.p. x4 days, 16th Day) it was −16.03 ± 8.57%; in data set [7] (PT 50 mg/kg/day i.p. x4 days, 18th Day) it was −15.41 ± 11.86%; in data set [7] (PT 100 mg/kg/day i.p. x4 days, 5th Day), −5.03 ± 8.95%; in data set [7] (PT 100 mg/kg/day i.p. x4 days, 9th Day), −12.82 ± 9.29%. The “Rate of Body Weight Reduction (%)” value in data set [7] (PT 100 mg/kg/day i.p. x4 days, 12th Day) is −16.86 ± 8.46%; in data set [7] (PT 100 mg/kg/day i.p. x4 days, 16th Day), −20.08 ± 9.11%; in data set [7] (PT 100 mg/kg/day i.p. x4 days, 18th Day) it was −21.05 ± 6.18%; in data set [7] (PT 200 mg/kg/day i.p. x4 days, 5th Day), −5.75 ± 9.93%; in [7] (PT 200 mg/kg/day i.p. x4 days, 9th Day), −15.25 ± 10.49%; in data set [7] (PT 200 mg/kg/day i.p. x4 days, 12th Day) it was −18.1 ± 9.64%. The “Rate of Body Weight Reduction (%)” value is reported as −18.1 ± 9.64% in data set [7] (PT 200 mg/kg/day i.p. x4 days, 16th Day) and −17.19 ± 9.86% in data set [7] (PT 200 mg/kg/day i.p. x4 days, 18th Day). Besides, the “rate of body weight reduction” value in data set [7] (PT, all groups (25, 50, 100, 200 mg/kg once a day for 4 days), even at the 18th day) is reported as no more than 10%.
For the molecule “diacetyl-bis(N4-methylthiosemicarbazone) copper complex [^64Cu-ATSM]”, the “tumor volume, change with time (FIG. 4; % of volume at day prior to start of 6TG or PT administration)” value in [6] is on record as “could suppress the proliferation of tumor depending on the dose thereof”. In addition, in data set [2], the “tumor volume, change with time (FIG. 5; % of volume at day prior to first start of 5-FU administration)” value is reported as “suppressed the proliferation of tumor depending on the dose thereof”. For the same molecule, the “sites of accumulation in tumor” value in data set [8] is “accumulate in sites different from those for ^18FDG in tumor”. For the same molecule, the “percentage of apoptotic cells in tumor (FIG. 2)” value in data set [3] is reported as “apoptosis of tumor cells was confirmed”. In addition, in [4], the “percentage of CD133+ cells in tumor (FIG. 3)” value is on record as “can kill CD133+cells”. Also, the “tumor volume, change with time (FIG. 1; % of volume at day prior to start of 5-FU administration)” value in [5] is “suppressed the proliferation of tumor depending on the dose thereof”. The “amount of CD133-positive cells in tumor and tumor size” value in [9] is given as “decreased the amount of CD133-positive cells in tumor to shrink the tumor”. In addition, in data set [10], the “accumulation in CD133-positive cells” value was “accumulates in CD133-positive cells”.
`Nc1nc2nc[nH]c2c(=S)[nH]1` [6TG, 6-Thioguanine]: in data set [6], the “tumor volume, change with time (FIG. 4; % of volume at day prior to start of 6TG or PT administration)” value is on record as “could not suppress the proliferation of tumor”. Moreover, the death of mice result is “died at the 13th to 15th day from administration” in data set [11] (6TG 25 mg/kg i.p. once a day for 4 days) and “died at the 6th to 8th day from administration” in data set [11] (6TG 50 mg/kg i.p. once a day for 4 days).
